Patent US12448369B2 (Edgewise Therapeutics, Inc., priority 2023, dated 2025)

Legend:
[1] = tested on: Rabbit Psoas myofibrils (skeletal myosin ATPase); test: Myofibril ATPase assay, rabbit psoas (skeletal) myofibrils; assay type: biochemical; conditions: rabbit psoas myofibrils
Summary of the method: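 Myofibrils homogenized in Triton X-100 buffer were assayed in pH 7.0 PIPES with defined Ca2+/EGTA. Myosin-driven ADP formation was coupled to NADH oxidation, with depletion monitored at 340 nm. Each value is the concentration that lowers activity to 75% of vehicle or, for activators, raises it to 125%.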

[2] = target: T1, Porcine ventricle myofibrils (ventricular myosin ATPase) (Sus scrofa, UniProt P79293); test: Myofibril ATPase assay, porcine ventricle myofibrils; assay type: biochemical, porcine (Yucatan minipigs); conditions: porcine ventricle myofibrils
T1 construct: Myofibrils from porcine cardiac muscle was isolated from the left ventricle of Yucatan minipigs; tissue Exemplar Genetics; host or cells: left ventricle of Yucatan minipigs, myofibrils prepared in house
Summary of the method: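 ATPase activity of porcine left-ventricle myofibrils (Yucatan minipig) was followed through PK-LDH coupling as NADH loss at 340 nm, read every 1.5-2 min for 75 min. Slopes were normalised to vehicle wells and fitted to a 4-parameter logistic model. Values are Y75, the concentration giving a 25% drop in activity, or Y125 for activators.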

[3] = tested on: Porcine atria myofibrils (atrial myosin ATPase); test: Myofibril ATPase assay, porcine atria myofibrils; assay type: biochemical; conditions: porcine atria myofibrils
Summary of the method: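 Values are Y75 (concentration cutting ATPase activity to 75% of vehicle) or Y125 (raising it to 125%), taken from 4-parameter logistic fits. Rates come from NADH disappearance at 340 nm in a PK/LDH-coupled assay with porcine atria myofibrils.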

[4] = Y75 value (75% activity relative to no compound)

T1 sequence (P79293 whole entry): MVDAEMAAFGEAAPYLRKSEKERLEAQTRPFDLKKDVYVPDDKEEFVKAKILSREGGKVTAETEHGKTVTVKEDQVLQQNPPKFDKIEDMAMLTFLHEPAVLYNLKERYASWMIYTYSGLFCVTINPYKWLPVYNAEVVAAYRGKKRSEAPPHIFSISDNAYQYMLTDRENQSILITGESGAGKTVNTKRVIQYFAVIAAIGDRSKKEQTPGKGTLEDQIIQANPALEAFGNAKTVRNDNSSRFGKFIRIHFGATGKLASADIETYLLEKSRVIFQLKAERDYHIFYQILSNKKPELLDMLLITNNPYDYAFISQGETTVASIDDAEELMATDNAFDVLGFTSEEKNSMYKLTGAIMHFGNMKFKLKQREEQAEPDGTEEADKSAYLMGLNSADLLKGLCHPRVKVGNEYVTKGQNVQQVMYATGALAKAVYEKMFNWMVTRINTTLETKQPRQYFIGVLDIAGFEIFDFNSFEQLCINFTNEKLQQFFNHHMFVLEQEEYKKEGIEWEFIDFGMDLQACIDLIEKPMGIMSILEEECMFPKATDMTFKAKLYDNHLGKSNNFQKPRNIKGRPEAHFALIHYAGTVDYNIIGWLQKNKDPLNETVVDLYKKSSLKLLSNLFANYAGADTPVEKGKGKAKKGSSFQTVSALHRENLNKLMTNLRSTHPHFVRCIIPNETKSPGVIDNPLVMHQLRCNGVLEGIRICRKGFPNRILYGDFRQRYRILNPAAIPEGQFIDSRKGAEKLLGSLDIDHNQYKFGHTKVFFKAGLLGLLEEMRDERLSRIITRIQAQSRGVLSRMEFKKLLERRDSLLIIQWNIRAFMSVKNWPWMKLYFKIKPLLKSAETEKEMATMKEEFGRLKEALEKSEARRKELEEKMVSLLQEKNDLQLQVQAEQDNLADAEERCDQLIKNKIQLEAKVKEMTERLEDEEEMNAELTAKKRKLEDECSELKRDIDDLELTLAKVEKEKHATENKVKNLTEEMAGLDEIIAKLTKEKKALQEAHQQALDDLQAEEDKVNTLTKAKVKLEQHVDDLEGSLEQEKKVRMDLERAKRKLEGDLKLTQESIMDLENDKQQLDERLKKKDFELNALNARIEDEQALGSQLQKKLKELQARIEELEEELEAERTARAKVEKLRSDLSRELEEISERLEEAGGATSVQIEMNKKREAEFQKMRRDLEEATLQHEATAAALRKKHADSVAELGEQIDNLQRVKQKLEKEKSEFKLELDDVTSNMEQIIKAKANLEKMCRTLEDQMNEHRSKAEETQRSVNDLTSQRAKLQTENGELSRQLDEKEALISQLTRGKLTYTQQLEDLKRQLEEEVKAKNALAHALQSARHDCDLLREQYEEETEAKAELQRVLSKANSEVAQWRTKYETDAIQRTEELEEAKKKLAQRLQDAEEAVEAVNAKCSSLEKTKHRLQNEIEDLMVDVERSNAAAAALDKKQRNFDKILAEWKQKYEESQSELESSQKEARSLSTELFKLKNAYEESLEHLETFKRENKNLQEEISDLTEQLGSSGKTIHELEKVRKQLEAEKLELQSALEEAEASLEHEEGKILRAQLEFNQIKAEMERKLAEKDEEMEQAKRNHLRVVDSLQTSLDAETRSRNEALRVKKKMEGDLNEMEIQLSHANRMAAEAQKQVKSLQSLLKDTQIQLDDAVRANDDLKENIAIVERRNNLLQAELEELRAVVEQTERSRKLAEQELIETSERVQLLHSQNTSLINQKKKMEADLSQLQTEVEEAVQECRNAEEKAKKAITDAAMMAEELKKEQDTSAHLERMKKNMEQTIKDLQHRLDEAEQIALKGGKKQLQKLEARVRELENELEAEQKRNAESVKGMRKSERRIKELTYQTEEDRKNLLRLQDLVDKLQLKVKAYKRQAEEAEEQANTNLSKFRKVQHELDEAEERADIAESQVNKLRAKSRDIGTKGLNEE

Row | SMILES | Skeletal EC25 ([1]; Y75 value) [µM] | Ventricular EC25 ([2]; Y75 value) [µM] | Atrial EC25 [3, 4] [µM] | Skeletal EC25 ([1]; Y75 value (no ‡ mark)) [µM] | Ventricular EC25 ([2]; Y75 value (no ‡ mark)) [µM] | Atrial EC25 ([3]; Y75 value (no ‡ mark)) [µM]
1 | C[C@@H](NC(=O)C1(c2cc3cc(F)ccc3[nH]c2=O)CC1)c1nccc(C#N)n1 (single isomer, unassigned) [compound 2507] | – | – | – | 19.51 | 100.00 | 4.10
2 | Cc1nccc2[nH]c(=O)c([C@@H](C)C(=O)N[C@@H](C)c3ncc(C#N)cc3F)c(C)c12 (single isomer, unassigned) [compound 193] | 0.75 | 5.94 | 0.47 | – | – | –
3 | Cc1cccc([C@@H](CO)NC(=O)Cc2c(C)c3c(C)nccc3[nH]c2=O)c1 (single isomer, unassigned) [compound 294] | 100.00 | 100.00 | 100.00 | – | – | –
4 | Cc1c(C2(C(=O)N[C@H]3CCc4cc(C#N)cnc43)CC2)c(=O)[nH]c2ccc(F)cc12 (single isomer, unassigned) [compound 2504] | – | – | – | 100.00 | 100.00 | 100.00
5 | Cc1nccc2[nH]c(=O)c([C@@H](C)C(=O)N[C@H](C)c3ncc(C#N)cc3F)c(C)c12 (single isomer, unassigned) [compound 191] | 4.04 | 100.00 | 1.73 | – | – | –
6 | C[C@@H](NC(=O)Cc1c(C2CC2)c2c(F)cccc2[nH]c1=O)c1ncc(C#N)cc1F [compound 1143] | – | – | – | 1.78 | 4.45 | 1.44
7 | C[C@@H](NC(=O)Cc1c(O)c2cc(F)c(F)cc2[nH]c1=O)c1ccc(C#N)cc1F [compound 1086] | – | – | – | 100.00 | 100.00 | 1.94
8 | O=C(Cc1cc2c(F)c(F)ccc2[nH]c1=O)N[C@H]1COc2ncccc21 (single isomer, unassigned) [compound 64] | – | – | – | 83.26 | 100.00 | 100.00
9 | Cc1nccc2[nH]c(=O)c(C(F)(F)C(=O)N[C@H](C)c3cnc(C#N)cn3)c(C)c12 (single isomer, unassigned) [compound 3520] | 0.25 | 4.50 | 2.38 | – | – | –
10 | Cc1c(CC(=O)N[C@H](C)c2ccc(C#N)cn2)c(=O)[nH]c2ccncc12 [compound 466] | 100.00 | 100.00 | 100.00 | – | – | –
11 | Cc1cc(F)cnc1[C@@H](C)NC(=O)C1(c2cc3c(F)c(F)ccc3[nH]c2=O)CC1 (single isomer, unassigned) [compound 4805] | – | – | – | 1.91 | 100.00 | 1.66
12 | Cc1c(O)ccc2[nH]c(=O)c(CC(=O)N[C@@H](C)c3ncc(F)cc3F)cc12 (single isomer, unassigned) [compound 78] | – | – | – | 6.60 | 100.00 | 7.08
13 | Cc1c(C2(C(=O)N[C@H](C)c3ncc(C#N)cc3F)CC2)c(=O)[nH]c2ccc(F)c(C(F)(F)F)c12 (single isomer, unassigned) [compound 4801] | – | – | – | 0.28 | 100.00 | 0.28
14 | C[C@H](NC(=O)[C@@H](C)c1cc2c(F)cccc2[nH]c1=O)c1ccc(F)cc1F (single isomer, unassigned) [compound 102] | – | – | – | 3.90 | 100.00 | 100.00
15 | Cc1c(CC(=O)N[C@@H]2COc3cccnc32)c(=O)[nH]c2ccnc(C#N)c12 (single isomer, unassigned) [compound 212] | 2.21 | 35.35 | 14.71 | – | – | –

Further lines, results first:

Row | Skeletal EC25 ([1]; Y75 value) [µM] | Ventricular EC25 ([2]; Y75 value) [µM] | Atrial EC25 [3, 4] [µM] | Skeletal EC25 ([1]; Y75 value (no ‡ mark)) [µM] | Ventricular EC25 ([2]; Y75 value (no ‡ mark)) [µM] | Atrial EC25 ([3]; Y75 value (no ‡ mark)) [µM] | SMILES
16 | 0.04 | 3.78 | 0.10 | – | – | – | Cc1c(CC(=O)N[C@@H](C)c2ccc(C#N)cc2F)c(=O)[nH]c2cnnc(C#N)c12 [compound 172]
17 | – | – | – | 0.08 | 0.09 | 0.04 | Cc1c(CC(=O)N[C@@H](C)c2ncc(C#N)cc2F)c(=O)[nH]c2ccc(F)c(Cl)c12 (single isomer, unassigned) [compound 2052]
18 | – | – | – | 2.92 | 1.01 | 100.00 | Cc1c(F)ccc2[nH]c(=O)c(CC(=O)N[C@H](C)c3ccc(C#N)cc3F)c(O)c12 [compound 19]
19 | 0.17 | 20.82 | 1.14 | – | – | – | C[C@H](NC(=O)Cc1c(C2CC2)c2cnccc2[nH]c1=O)c1ccc(F)cc1F [compound 444]
20 | 0.17 | 2.20 | 0.56 | – | – | – | Cc1nccc2[nH]c(=O)c(CC(=O)N[C@@H](CO)c3ccc(C#N)cc3F)c(C)c12 (single isomer, unassigned) [compound 243]
21 | 4.59 | 100.00 | 100.00 | – | – | – | Cc1cc2[nH]c(=O)c(CC(=O)N[C@@H](C)c3ccc(F)cc3F)c(C)c2cn1 [compound 446]
22 | 0.71 | 6.79 | 0.36 | – | – | – | Cc1c(CC(=O)N[C@@H](CO)c2ccc(F)cc2F)c(=O)[nH]c2ccc(C(F)(F)F)nc12 [compound 217]
23 | 0.29 | 36.08 | 2.23 | – | – | – | C[C@H](NC(=O)[C@@H](C)c1cc2c(F)nccc2[nH]c1=O)c1ccc(F)cc1F (single isomer, unassigned) [compound 367]
24 | 1.32 | 100.00 | 100.00 | – | – | – | Cc1nccc2[nH]c(=O)c(CC(=O)N[C@@H](C)c3ccc(S(C)(=O)=O)cc3F)c(C)c12 (single isomer, unassigned) [compound 207]
25 | – | – | – | 0.04 | 0.22 | 0.12 | Cc1nc(C#N)ncc1[C@H](C)NC(=O)Cc1c(C)c2cc(F)ccc2[nH]c1=O [compound 1053]
26 | – | – | – | 0.19 | 3.33 | 1.12 | C[C@H](NC(=O)Cc1cc2ccccc2[nH]c1=O)c1ccc(F)cc1F [compound 137]
27 | 7.06 | 44.80 | 100.00 | – | – | – | C[C@H](NC(=O)Cc1cc2nc(Cl)ncc2[nH]c1=O)c1ccc(F)cc1F [compound 390]
28 | – | – | – | 3.75 | 100.00 | 100.00 | C[C@H](NC(=O)Cc1cc2cc(C#N)ccc2[nH]c1=O)c1ccc(F)cc1F [compound 121]
29 | 2.37 | 100.00 | 100.00 | – | – | – | Cc1c(CC(=O)N[C@@H](C)c2ccc(F)cc2F)c(=O)[nH]c2ccnc(N3CCCC3)c12 [compound 346]
30 | – | – | – | 0.12 | 0.42 | 0.07 | Cc1c(CC(=O)N[C@H](C)c2ccc(C#N)cn2)c(=O)[nH]c2ccc(F)c(F)c12 [compound 45]
31 | – | – | – | 0.03 | 0.15 | 0.02 | Cc1c(CC(=O)N[C@@H](C)c2ccc(F)cc2F)c(=O)[nH]c2cccc(F)c12 [compound 130]
